Laboratory results taken from patent publication US20100190187A1, “Screening Assays for Antagonists and Analyses of Cardiac Hypertrophy” (The Regents of the University of Michigan Office of …, priority 2006, published 2010).

Molecular target: T1, VDRtt (Rattus norvegicus, UniProt P13053)
T1 construct: from tissue; host or cells: rat heart ventricle, crude myocardial membranes (7,700-40,000 x g pellet)
T1 sequence (P13053 1-423): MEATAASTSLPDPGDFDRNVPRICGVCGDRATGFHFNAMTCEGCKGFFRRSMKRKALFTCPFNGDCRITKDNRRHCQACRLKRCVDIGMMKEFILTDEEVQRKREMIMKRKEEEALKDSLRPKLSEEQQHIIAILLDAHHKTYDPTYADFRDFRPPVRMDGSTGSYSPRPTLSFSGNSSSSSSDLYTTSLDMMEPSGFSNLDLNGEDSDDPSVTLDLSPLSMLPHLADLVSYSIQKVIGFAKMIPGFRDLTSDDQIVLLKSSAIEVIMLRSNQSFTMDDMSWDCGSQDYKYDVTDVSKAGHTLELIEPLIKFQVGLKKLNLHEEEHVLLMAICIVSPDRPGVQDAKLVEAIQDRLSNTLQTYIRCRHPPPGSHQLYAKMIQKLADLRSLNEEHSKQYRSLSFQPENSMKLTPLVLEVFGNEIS
Assay: Competition with [3H] 1α,25(OH)2 vitamin D3 for binding to rat heart membrane preparations
Settings: radioligand binding experiments, FIGS. 6 and 7
Experimental: Crude myocardial membranes were prepared as follows: whole hearts were removed from three month old female Sprague-Dawley rats and were cannulated and perfused two times with 10 mls ice-cold DPBS then once with 3 mls of ice-cold TKED lysis buffer (50 mM Tris-HCl, 150 mM KCl, 1.5 mM EDTA, 10 mM dithiothreitol, pH7.4 and a 1/100 dilution of Sigma Protease Inhibitor Cocktail [P8340]). Ventricles were cut away from atria and connective tissue and then minced, transferred to a 13 ml round-bottom Sarstedt tube and washed two times in 10 mls TKED lysis buffer by spinning briefly at full speed in a clinical centrifuge then aspirating. Tissue was kept ice-cold as much as possible. Washed minced ventricle tissue was then homogenized on ice with a Tekmar Tissuemizer in 5 volumes (˜5 mls) of TKED lysis buffer using 10 strokes at setting 30 followed by 5 strokes at setting 50. The resulting homogenate was transferred to a 15 ml Corex tube and centrifuged in a Beckman JA-20 rotor at 8,000 rpm (7,700 g) for 15 minutes at 4° C. The supernatant was transferred to a new 15 ml Corex tube and centrifuged in a Beckman JA-20 rotor at 18,200 rpm (40,000 g) for 25 minutes at 4° C. The resulting membrane pellet was washed once in a few mls TKED lysis buffer, resuspended in 0.5 mls TKED lysis buffer then homogenized with 3 strokes of a 2 ml Wheaton Potter-Elvejhem tissue grinder.
Ligand binding assays to determine the ability of competitors or test compounds to compete with [^3H] […] 1α,25(OH)2 vitamin D3 (specific activity 176 Ci/mmol) and various concentrations of competitor or test compound. Nonspecific binding is determined in the presence of cold 1α,25(OH)2 Vitamin D3 (2 μM) for vehicle and each competitor or test compound. Assays are performed at room temperature for 60 minutes. Reactants are then filtered over glass fiber filters (Whatman GF-C) and washed three times with 5 mls ice-cold TKEDN binding buffer. […] Tritiated [^3H] 1α,25(OH)2 vitamin D3 can be obtained from G.E. Healthcare and dried using a nitrogen evaporator and resuspended in ethanol. 1α,25(OH)2 Vitamin D3 and competitors or test compounds can be obtained from Sigma-Aldrich and diluted in ethanol. Vitamin D5 was obtained from the University of Illinois and was diluted in ethanol.

| SMILES | binding of vitamin D analogs to VDRtt |
| --- | --- |
| C=C1/C(=C\C=C2/CCC[C@]3(C)[C@@H]([C@H](C)CCC(O)C(C)(C)O)CC[C@@H]23)C[C@@H](O)CC1O (stereo partly shown) [1,24,25 trihydroxyvitamin D3] | binds with various affinities |
| C=C1CCC(O)C/C1=C\C=C1\CCCC2(C)C1CCC2C(C)CCC(O)C(C)(C)O (stereo not shown) [24,25 dihydroxyvitamin D3] | binds with various affinities |
| C=C1CC[C@H](O)C/C1=C/C=C1\CCC[C@]2(C)[C@@H]([C@H](C)CCCC(C)(C)O)CC[C@@H]12 [25-hydroxyvitamin D3] | binds with various affinities |
| C=C1CC[C@H](O)C/C1=C/C=C1\CCC[C@]2(C)[C@@H]([C@H](C)CC[C@@H](CC)C(C)C)CC[C@@H]12 [Vitamin D5] | binds with various affinities |
